According to ChEMBL document CHEMBL1221283, “Antimicrobial phenolic abietane diterpene from Lycopus europaeus L. (Lamiaceae)” (2010):
Values after ≈ are worked out from the molar mass of the structure shown.

What was measured:
Assay type in all cases: functional
Bacillus cereus = assay: Antibacterial activity against Bacillus cereus food isolate after 24 hrs by broth microdilution method
Pseudomonas aeruginosa = assay: Antibacterial activity against Pseudomonas aeruginosa ATCC 9027 after 24 hrs by broth microdilution method; conditions: ATCC 9027, 24 h
Escherichia coli [1] = assay: Antibacterial activity against Escherichia coli food isolate after 24 hrs by broth microdilution method
Klebsiella pneumoniae [2] = assay: Antibacterial activity against Klebsiella pneumoniae clinical isolate after 24 hrs by broth microdilution method
Aspergillus restrictus = assay: Antifungal activity against Aspergillus restrictus isolates after 48 hrs by broth microdilution method
Escherichia coli [3] = assay: Antibacterial activity against Escherichia coli clinical isolate after 24 hrs by broth microdilution method
Penicillium chrysogenum = assay: Antifungal activity against Penicillium chrysogenum isolates after 48 hrs by broth microdilution method
Aspergillus fumigatus = assay: Antifungal activity against Aspergillus fumigatus isolates after 48 hrs by broth microdilution method
Micrococcus luteus = assay: Antibacterial activity against Sarcina lutea food isolate after 24 hrs by broth microdilution method
Staphylococcus aureus [4] = assay: Antibacterial activity against Staphylococcus aureus ATCC 25923 after 24 hrs by broth microdilution method; conditions: ATCC 25923, 24 h
Saccharomyces cerevisiae = assay: Antifungal activity against Saccharomyces cerevisiae ATCC 9763 after 48 hrs by broth microdilution method
Acremonium chrysogenum = assay: Antifungal activity against Acremonium chrysogenum isolates after 48 hrs by broth microdilution method; conditions: Hapsidospora chrysogena
Candida albicans = assay: Antifungal activity against Candida albicans ATCC 10231 after 48 hrs by broth microdilution method
Staphylococcus aureus [5] = assay: Antibacterial activity against Staphylococcus aureus food isolate after 24 hrs by broth microdilution method
Escherichia coli [6] = assay: Antibacterial activity against Escherichia coli ATCC 25922 after 24 hrs by broth microdilution method; conditions: ATCC 25922, 24 h
Staphylococcus aureus [7] = assay: Antibacterial activity against Staphylococcus aureus ATCC 6538 after 24 hrs by broth microdilution method; conditions: ATCC 6538, 24 h
Klebsiella pneumoniae [8] = assay: Antibacterial activity against Klebsiella pneumoniae ATCC 10031 after 24 hrs by broth microdilution method; conditions: ATCC 10031, 24 h
Proteus vulgaris = assay: Antibacterial activity against Proteus vulgaris ATCC 8427 after 24 hrs by broth microdilution method; conditions: ATCC 8427, 24 h
Salmonella enterica = assay: Antibacterial activity against Salmonella enterica ATCC 13076 after 24 hrs by broth microdilution method; conditions: ATCC 13076, 24 h
Bacillus subtilis = assay: Antibacterial activity against Bacillus subtilis ATCC 6633 after 24 hrs by broth microdilution method; conditions: ATCC 6633, 24 h
Trueperella pyogenes = assay: Antibacterial activity against Corynebacterium pyogenes ATCC 19411 after 24 hrs by broth microdilution method; conditions: ATCC 19411, 24 h

COC(=O)[C@]1(C)CC[C@H](OC(C)=O)[C@]2(C)c3c(O)cc(C(C)C)cc3[C@H](O)[C@@H](OC(C)=O)[C@H]21 [EUROABIENOL]
MBC (Bacillus cereus): 716 µg/mL (≈ 1550 µM)
MIC (Bacillus cereus): 89 µg/mL (≈ 192 µM)
MBC (Pseudomonas aeruginosa): 2870 µg/mL (≈ 6200 µM)
MIC (Pseudomonas aeruginosa): 358 µg/mL (≈ 774 µM)
MBC (Escherichia coli [1]): 5740 µg/mL (≈ 12400 µM)
MIC (Escherichia coli [1]): 716 µg/mL (≈ 1550 µM)
MBC (Klebsiella pneumoniae [2]): 716 µg/mL (≈ 1550 µM)
MIC (Klebsiella pneumoniae [2]): 45 µg/mL (≈ 97.3 µM)
MFC (Aspergillus restrictus): 2870 µg/mL (≈ 6200 µM)
MIC (Aspergillus restrictus): 1430 µg/mL (≈ 3100 µM)
MBC (Escherichia coli [3]): 716 µg/mL (≈ 1550 µM)
MIC (Escherichia coli [3]): 358 µg/mL (≈ 774 µM)
MFC (Penicillium chrysogenum): 2870 µg/mL (≈ 6200 µM)
MIC (Penicillium chrysogenum): 1430 µg/mL (≈ 3100 µM)
MFC (Aspergillus fumigatus): 358 µg/mL (≈ 774 µM)
MIC (Aspergillus fumigatus): 89 µg/mL (≈ 192 µM)
MBC (Micrococcus luteus): 179 µg/mL (≈ 387 µM)
MIC (Micrococcus luteus): 45 µg/mL (≈ 97.3 µM)
MBC (Staphylococcus aureus [4]): 5740 µg/mL (≈ 12400 µM)
MIC (Staphylococcus aureus [4]): 179 µg/mL (≈ 387 µM)
MFC (Saccharomyces cerevisiae; ATCC 9763, 48 h): 89 µg/mL (≈ 192 µM)
MIC (Saccharomyces cerevisiae; ATCC 9763, 48 h): 89 µg/mL (≈ 192 µM)
MFC (Acremonium chrysogenum): > 5740 µg/mL
MIC (Acremonium chrysogenum): > 5740 µg/mL
MFC (Candida albicans; ATCC 10231, 48 h): 1430 µg/mL (≈ 3100 µM)
MIC (Candida albicans; ATCC 10231, 48 h): 358 µg/mL (≈ 774 µM)
MBC (Staphylococcus aureus [5]): 716 µg/mL (≈ 1550 µM)
MIC (Staphylococcus aureus [5]): 22 µg/mL (≈ 47.6 µM)
MBC (Escherichia coli [6]): 2870 µg/mL (≈ 6200 µM)
MIC (Escherichia coli [6]): 179 µg/mL (≈ 387 µM)
MBC (Staphylococcus aureus [7]): 2870 µg/mL (≈ 6200 µM)
MIC (Staphylococcus aureus [7]): 22 µg/mL (≈ 47.6 µM)
MBC (Klebsiella pneumoniae [8]): 1430 µg/mL (≈ 3100 µM)
MIC (Klebsiella pneumoniae [8]): 179 µg/mL (≈ 387 µM)
MBC (Proteus vulgaris): 5740 µg/mL (≈ 12400 µM)
MIC (Proteus vulgaris): 179 µg/mL (≈ 387 µM)
MBC (Salmonella enterica): 1430 µg/mL (≈ 3100 µM)
MIC (Salmonella enterica): 179 µg/mL (≈ 387 µM)
MBC (Bacillus subtilis): 2870 µg/mL (≈ 6200 µM)
MIC (Bacillus subtilis): 179 µg/mL (≈ 387 µM)
MBC (Trueperella pyogenes): 1430 µg/mL (≈ 3100 µM)
MIC (Trueperella pyogenes): 179 µg/mL (≈ 387 µM)

CN(C)[C@@H]1C(O)=C(C(N)=O)C(=O)[C@@]2(O)C(O)=C3C(=O)c4c(O)cccc4[C@@](C)(O)[C@H]3C[C@@H]12 [TETRACYCLINE]
MIC (Bacillus cereus): 0.195 µg/mL (≈ 0.439 µM)
MIC (Pseudomonas aeruginosa): 1.56 µg/mL (≈ 3.51 µM)
MIC (Escherichia coli [1]): 1.56 µg/mL (≈ 3.51 µM)
MIC (Klebsiella pneumoniae [2]): 0.39 µg/mL (≈ 0.878 µM)
MIC (Escherichia coli [3]): 0.195 µg/mL (≈ 0.439 µM)
MIC (Micrococcus luteus): 0.39 µg/mL (≈ 0.878 µM)
MIC (Staphylococcus aureus [4]): 0.098 µg/mL (≈ 0.221 µM)
MIC (Staphylococcus aureus [5]): 0.098 µg/mL (≈ 0.221 µM)
MIC (Escherichia coli [6]): 1.56 µg/mL (≈ 3.51 µM)
MIC (Staphylococcus aureus [7]): 0.098 µg/mL (≈ 0.221 µM)
MIC (Klebsiella pneumoniae [8]): 0.39 µg/mL (≈ 0.878 µM)
MIC (Proteus vulgaris): 0.39 µg/mL (≈ 0.878 µM)
MIC (Salmonella enterica): 0.195 µg/mL (≈ 0.439 µM)
MIC (Bacillus subtilis): 0.195 µg/mL (≈ 0.439 µM)
MIC (Trueperella pyogenes): 1.56 µg/mL (≈ 3.51 µM)

NYSTATIN
MIC (Aspergillus restrictus): 0.781 µg/mL
MIC (Penicillium chrysogenum): 0.39 µg/mL
MIC (Aspergillus fumigatus): 0.195 µg/mL
MIC (Saccharomyces cerevisiae): 12.5 µg/mL
MIC (Acremonium chrysogenum): 0.195 µg/mL
MIC (Candida albicans): 6.25 µg/mL
